Results as given in patent US11192914B2, “Alkyne containing nucleotide and nucleoside therapeutic compositions and uses related thereto” (Emory University, priority 2016, dated 2021).
pEC50: −log10 of the molar value. Read-outs that look alike come from different tables or passages of the source.

How the values were obtained:
[1] = tested on: ZIKV; test: ZIKV infectious (cytoprotection, XTT) assay; format: cell-based, Zika virus; conditions: Zika virus, Vero, Cell Line Vero (Example 92); read-out: ZIKV EC50
Method: Vero cells were passaged in DMEM medium in T-75 flasks prior to use in the antiviral assay. On the day preceding the assay, the cells were split 1:2 to assure they were in exponential growth phase at the time of infection. The cells were resuspended at […] cells per well in tissue culture medium and added to flat bottom microtiter plates in a volume of […]. The plates were incubated at 37° C./5% CO2 overnight to allow for cell adherence. Separately, Zika virus was titrated in LLCMK2 cells to define the inoculum for use in the antiviral assay. Virus was diluted in DMEM medium such that the amount of virus added to each well in a volume of […] was the amount determined to achieve 85 to 95% cell killing at 5 days post-infection. Following incubation test plates were stained with XTT dye. XTT solution was prepared daily as a stock solution of 1 mg/mL in RPM11640. PMS solution was prepared at 0.15 mg/mL in PBS and stored in the dark at −20° C. XTT/PMS stock was prepared immediately before use by adding […] of PMS per mL of XTT solution. Fifty microliters of XTT/PMS was added to each well of the plate, and the plate was reincubated for 4 hours at 37° C. Plates were sealed with adhesive plate sealers ad shaken gently to mix the soluble formazan product, and the plate was read spectrophotometrically read 450/650 nm with a Molecular Devices Vmax plate reader. The raw data was collected from Softmax Pro and imported into a Microsoft Excel XLfit4 spreadsheet for analysis using four parameter curve fit calculations.

[2] = tested on: DENV2 New Guinea C; test: Anti-Dengue virus cytoprotection assay; format: cell-based, Dengue virus type 2
Method: Cell Preparation—BHK21 cells (Syrian golden hamster kidney cells, ATCC catalog #CCL-I 0), Vero cells (African green monkey kidney cells, ATCC catalog #CCL-81), or Huh-7 cells (human hepatocyte carcinoma) were passaged in DMEM supplemented with 10% FBS, 2 mM L-glutamine, 100 U/mL penicillin, and 100 μg/mL streptomycin in T-75 flasks prior to use in the antiviral assay. On the day preceding the assay, the cells were split 1:2 to assure they were in an exponential growth phase at the time of infection. Total cell and viability quantification was performed using a hemocytometer and Trypan Blue dye exclusion. Cell viability was greater than 95% for the cells to be utilized in the assay. The cells were resuspended at 3×10^3 ([…] for Vero cells and Huh-7 cells) cells per well in tissue culture medium and added to flat bottom microtiter plates in a volume of 100 μL. The plates were incubated at 37° C./5% CO2 overnight to allow for cell adherence.
Virus Preparation—The Dengue virus type 2 New Guinea C strain was obtained from ATCC (catalog #VR-1584) and was grown in LLC-MK2 (Rhesus monkey kidney cells; catalog #CCL-7.1) cells for the production of stock virus pools. An aliquot of virus pretitered in BHK21 cells was removed from the freezer (−80° C.) and allowed to thaw slowly to room temperature in a biological safety cabinet. Virus was resuspended and diluted into assay medium (DMEM supplemented with 2% heat-inactivated FBS, 2 mM L-glutamine, 100 U/mL penicillin, and 100 μg/mL streptomycin) such that the amount of virus added to each well in a volume of 100 μL was the amount determined to yield 85 to 95% cell killing at 6 days post-infection.
Plate Format—Each plate contains cell control wells (cells only), virus control wells (cells plus virus), triplicate drug toxicity wells per compound (cells plus drug only), as well as triplicate experimental wells (drug plus cells plus virus).
Efficacy and Toxicity XTT-Following incubation at 37° C. in a 5% CO2 incubator, the test plates were stained with the tetrazolium dye XTT (2,3-bis(2-methoxy-4-nitro-5-sulfophenyl)-5-[(phenylamino)carbonyl]-2H-tetrazolium hydroxide). XTT-tetrazolium was metabolized by the mitochondrial enzymes of metabolically active cells to a soluble formazan product, allowing rapid quantitative analysis of the inhibition of virus-induced cell killing by antiviral test substances. XTT solution was prepared daily as a stock of 1 mg/mL in RPMI 1640. Phenazine methosulfate (PMS) solution was prepared at 0.15 mg/mL in PBS and stored in the dark at −20° C. XTT/PMS stock was prepared immediately before use by adding 40 μL of PMS per ml of XTT solution. Fifty microliters of XTT/PMS was added to each well of the plate and the plate was reincubated for 4 hours at 37° C. Plates were sealed with adhesive plate sealers and shaken gently or inverted several times to mix the soluble formazan product and the plate was read spectrophotometrically at 450/650 nm with a Molecular Devices Vmax plate reader.
Data Analysis —Raw data was collected from the Softmax Pro 4.6 software and imported into a Microsoft Excel spreadsheet for analysis. The percent reduction in viral cytopathic effect compared to the untreated virus controls was calculated for each compound. The percent cell control value was calculated for each compound comparing the drug treated uninfected cells to the uninfected cells in medium alone.

[3] = tested on: RSV; test: Antiviral assay RSV; format: cell-based; conditions: human respiratory syncytial virus, Huh-7, read-out: RSV EC50
Method: Cell Preparation-HEp2 cells (human epithelial cells, ATCC catalog #CCL-23) were passaged in DMEM supplemented with 10% FBS, 2 mM L-glutamine, 100 U/mL penicillin, 100 μg/mL streptomycin 1 mM sodium pyruvate, and 0.1 mM NEAA, T-75 flasks prior to use in the antiviral assay. On the day preceding the assay, the cells were split 1:2 to assure they were in an exponential growth phase at the time of infection. Total cell and viability quantification was performed using a hemocytometer and Trypan Blue dye exclusion. Cell viability was greater than 95% for the cells to be utilized in the assay. The cells were resuspended at 1×10^4 cells per well in tissue culture medium and added to flat bottom microtiter plates in a volume of 100 μL. The plates were incubated at 37° C./5% CO2 overnight to allow for cell adherence. […] Virus was resuspended and diluted into assay medium (DMEM supplemented with 2% heat-inactivated FBS, 2 mM L-glutamine, 100 U/mL penicillin, 100 μg/mL streptomycin, 1 mM sodium pyruvate, and 0.1 mM NEAA) such that the amount of virus added to each well in a volume of 100 μL was the amount determined to yield 85 to 95% cell killing at 6 days post-infection. Efficacy and Toxicity XTT-Plates were stained and analyzed as previously described for the Dengue cytoprotection assay.

[4] = tested on: HRV; test: Antiviral assay HRV; format: cell-based; conditions: HeLa, read-out: HRV EC50
[5] = tested on: ZIKV; test: ZIKV infectious (cytoprotection, XTT) assay; format: cell-based; conditions: Zika virus, Huh-7, Cell Line Huh-7 (Example 92); read-out: ZIKV EC50

Q: Which results are given for `C#CC1(O)C(O)[C@@H](COP(=O)(OCOC(=O)C(C)(C)C)OCOC(=O)C(C)(C)C)O[C@H]1n1ccc(=O)[nH]c1=O` (stereo partly shown) [EIDD-02290]?
A: pEC50 [1]: 5.97; pEC50 ([2]; DENV2, Huh-7, read-out: DENV2 EC50): 6.62; pEC50 ([2]; DENV2, Vero, read-out: DENV2 EC50): 5.12; pEC50 ([2]; DENV2, read-out: DENV2 EC50): 5.11; pEC50 [3]: 4.05; pEC50 [4]: 7.30; pEC50 [5]: 6.51
